Source: patent US20240315994A1, “SMALL MOLECULE MODULATORS OF FERROPTOSIS” (ARPEGGIO BIOSCIENCES, INC., priority 2021, published 2024)

What was measured:
[1] = system: HT-1080 fibrosarcoma cells; test: Bodipy C-11 lipid peroxidation imaging in HT-1080 cells; type: cell-based; settings: 10 μM, 1 hour, with or without 1.5 μM ferrostatin-1, ferrostatin-1 rescued
Experimental: Compounds 6666, 6047, […], 8216, and 8147 were also evaluated for inducing lipid peroxidation in HT-1080 fibrosarcoma cells in the presence or absence of 1.5 µM ferrostatin-1. Briefly, HT-1080 fibrosarcoma cells were treated with 10 µM of compound with or without 1.5 μM ferrostatin-1 and incubated at 37° C. for 1 hour. Bodipy C-11 and Hoescht stain were then added to the media, the cells were allowed to incubate for an additional 30 minutes and then were imaged on the Opera Phenix confocal screening system.

[2] = system: HK-2 kidney epithelial cells; test: HK-2 kidney epithelial cell viability dose response (Cell Titer Glo); type: cell-based; settings: healthy HK-2 vs cancer HT-1080 cells
Experimental: To test whether the ferroptosis-inducing compounds 8216 or 1962 display selectivity for cancer cells we performed a dose response study in HK-2 kidney epithelial cells. HK-2 kidney epithelial cells are a non-cancerous cell line that is commonly used as a “healthy” control in ferroptosis experiments. Briefly, HK-2 kidney epithelial cells were plated 24 hours prior to treatment with concentrations of the ferroptosis-inducing compounds 8216 or 1962 ranging from 10 µM to 10 nM. The ferroptosis-inducing compound RSL3 was used as a positive control. As an additional control, we included a non-specific inducer of apoptosis, staurosporine. Cell Titer Glo® was used to read out cell viability after 48 hours of compound exposure. Data was collected in triplicate.
To determine whether the reduction in viability of HK-2 renal epithelial cells exposed to compounds 8216 or 1962 is driven by induction of ferroptosis, we performed dose response curves for each compound in the presence or absence of ferrostatin-1. We also compared the EC50s for each compound between healthy cells (HK-2 renal epithelial cells) and cancer cells (HT-1080 fibrosarcoma cells) to determine a therapeutic window for healthy vs diseased cells. […] Cell Titer Glo® was used to read out cell viability after 48 hours of compound exposure. […]

recombinant GPX4 protein = biological target: T1, recombinant GPX4 protein (Homo sapiens, UniProt P36969); test: GPX4 inhibitor screening assay (Cayman Chemical cat #701880); type: biochemical; settings: for GPX4 inhibitory capacity in vitro: 25 μM, one hour incubation with recombinant GPX4; for EC50: stated with the FIG. 6/FIG. 7 binding and GPX4 enzymatic results, assay behind the EC50 not named, read-out: EC50 (half maximal effective concentration)
T1 construct: purchased Cayman Chemical SO960203
T1 sequence (P36969 1-197): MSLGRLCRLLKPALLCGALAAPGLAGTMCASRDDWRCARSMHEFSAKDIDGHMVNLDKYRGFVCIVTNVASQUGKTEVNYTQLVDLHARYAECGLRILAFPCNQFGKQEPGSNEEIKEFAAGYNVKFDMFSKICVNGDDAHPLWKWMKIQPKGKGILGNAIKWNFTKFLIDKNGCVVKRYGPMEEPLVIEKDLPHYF
Experimental: To determine whether the five ferroptosis-inducing compounds (1816, 8216, 3362, 1962, and 0973) inhibit GPX4 enzymatic activity in vitro, we used a commercially available GPX4 inhibitor screening kit (Cayman Chemical cat #701880). This assay measures a compound's ability to prevent cumene hydroperoxide reduction by recombinant GPX4 protein. Briefly, the five ferroptosis-inducing compounds (25 μM) were incubated with recombinant GPX4 protein for one hour before being run in the Cayman Chemicals GPX4 inhibitor screening assay according to manufacturer's recommendations. The assay read out is a change in absorbance between NADPH and NADP. ML162 (25 μM) and RSL3 (25 μM) were used as positive control compounds.
An enzymatic assay that measures the reduction of […] by GPX4 was used to test the ability of compounds 8216, 6666, 8147, and 3793 to inhibit the activity of GPX4. The enzymatic assay was performed using a commercially available kit (Cayman cat #701880). The compounds were tested at 8 concentrations in duplicate with the compound being diluted following manufacturer's instructions. The enzymatic reaction was allowed to continue for 1 hour prior to reading out the kinetic shift in absorbance that occurs as result of GPX4 […].

[3] = system: 786-O Renal Clear Cell Carcinoma cells; test: Bodipy-C11 lipid peroxidation staining in 786-O cells; type: cell-based; settings: for lipid peroxidation (Bodipy-C11 staining): 8216 6.25 μM 2 h, 1816 25 μM 1 h, 3362 12.5 μM 2 h, 0973 50 μM 2 h, 1962 50 μM 2 h
Experimental: To validate that the five ferroptosis-inducing compounds identified in FIG. 3 do cause lipid peroxidation, we used Bodipy-C11 staining in 786-O Renal Clear Cell Carcinoma cells to visualize using microscopy the presence (or absence) of oxidized lipids. Biodipy-C11 is a dye that traffics to lipid membranes and harbors a fluorophore that emits at different wavelengths depending on its oxidation status. Briefly, 786-O Renal Clear Cell Carcinoma cells were plated 24 hours prior to treatment with each of the five ferroptosis-inducing compounds (8216, 1816, 3362, 1962, and 0973) for one or two hours. DMSO was used as a control treatment. Following the treatment period, Hoechst stain (10 μM; a nuclear counterstain) and Bodipy-C11 (200 μM) were added to the cells for 30 minutes and then the cells were imaged using the Opera Phenix high content screening microscope.
FIG. 4B is a panel of plots 410 showing fluorescence images of Biodipy-C11 staining of cells treated with compound 8216 and the controls RSL3 and sodium arsenite. Briefly, 786-O Renal Clear Cell Carcinoma cells were plated 24 hours prior to treatment with compound 8216 and the controls RSL3 and sodium arsenite for 1 hour with and without 1.5 μM of ferrostatin-1. Bodipy C-11 undergoes a shift in emission when lipids become oxidized, non-oxidized lipids are represented in orange and oxidized lipids are green; Hoescht was included as nuclear stain to represent cell bodies.

| EC50 (recombinant GPX4 protein) | Compound | lipid peroxidation (Bodipy C-11 emission shift) [1] | therapeutic window (HK-2 vs HT-1080 EC50 difference) [2] | GPX4 inhibitory capacity in vitro (recombinant GPX4 protein) | Bodipy C-11 emission shift (lipid oxidation) ([3]; 1 hour, with and without 1.5 μM ferrostatin-1) | lipid peroxidation (Bodipy-C11 staining) [3] |
| --- | --- | --- | --- | --- | --- | --- |
| ~100 nM | O=C(CCl)N(Cc1ccc(F)cc1)C1CCCCC1 [Compound 8216] | shift in emission reflective of lipid peroxidation | comparable to that of RSL3 | exhibit potent GPX4 inhibitory capacity | shift in emission color from orange to green | some degree of lipid peroxidation was observed |
| – | CCOc1ccc(C[C@@H]2c3cc(OCC)c(OCC)cc3CCN2C(=O)CCl)cc1OCC [Compound 3362] | – | – | do not inhibit GPX4 enzymatic activity in vitro | – | some degree of lipid peroxidation was observed |
| ~440 nM | O=C(CCl)N1c2ccccc2OC[C@@H]1c1ccccc1 [Compound 1962] | – | – | exhibit potent GPX4 inhibitory capacity | – | some degree of lipid peroxidation was observed |
| – | CCCCCN(C(=O)CCl)c1c(N)n(CCCC)c(=O)[nH]c1=O [Compound 1816] | – | – | do not inhibit GPX4 enzymatic activity in vitro | – | some degree of lipid peroxidation was observed |
